This note sets out measurements from patent US5451600A, “Substituted tetrahydrobenzopyrrolylfuranoic acid derivatives as phospholipase A2 inhibitors” (Hoffmann-La Roche Inc., priority 1994, dated 1995).

As a reminder, the pIC50 is −log10 of the IC50, conventionally taken in molar units.

pIC50: −log10 of the molar value.

For experiment [1], the target named is T1, PLA2 activity in human synovial fluid (HSF) (Homo sapiens, UniProt P14555).
T1 construct: Synovial fluid was obtained from patients with rheumatoid arthritis; from tissue; host or cells: cell-depleted synovial fluid of patients with rheumatoid arthritis
T1 sequence (P14555 21-144): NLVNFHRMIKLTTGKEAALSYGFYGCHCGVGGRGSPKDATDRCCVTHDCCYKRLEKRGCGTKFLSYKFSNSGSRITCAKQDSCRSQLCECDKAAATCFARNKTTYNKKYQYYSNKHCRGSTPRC
The experiment is described as follows: Phospholipase A2 (PLA2) enzymatic assay - % Inhibition of HSF-PLA2. The format is biochemical. The following applies: for inhibition at 5 µM: read-out: % Inhib. of HSF-PLA2 at 5 μM. The source says:
1, Phospholipase A2 (PLA2) enzymatic assay - % Inhibition of HSF-PLA2
PLA2 assay procedure described by Hope et al., Inflammation 14:543-559 (1.990) was utilized to measure the inhibitory activity of the invention (inhibitor) against PLA2 activity in human synovial fluid (HSF). Synovial fluid was obtained from patients with rheumatoid arthritis. The assay procedure measured the release of [1-^14 C]oleic acid from the sn-2 position of phospholipids in autoclaved Escherichia coli previously grown in media containing [1-^14 C]oleic acid. The standard assay reaction conditions included 1×10^9 Escherichia coil (10,000 dpm ^14 C), 0.15% (v/v) cell-depleted HSF, (which was equivalent to 66 μg protein/mL) 2 mM CaCl2, 150 mM NaCl, 50 mM sodium (N-[2-hydroxyethyl] piperazine-N'-[2-ethanesulfonate]) (HEPES) buffer (pH 7.3), 1% dimethyl sulfoxide (DMSO) and various concentrations of inhibitor in a total volume of 0.5 ml. Inhibitors were dissolved in DMSO and added. The reaction was initiated by addition of HSF, incubated for 30 min at 37° C. and then stopped by addition of 2.5 ml of chloroform/methanol (1:1.5, v/v). The total lipids were extracted by the method of Bligh, E. G., and Dyer, W. J, Can. J. Biochem. Physiol. 37:911-917 (1959) by the further addition of 0.5 mL of chloroform and 1 mL of water with mixing. The lipid extract was redissolved in chloroform/methanol (9:1, v/v) containing 10 ug of carrier oleic acid. The oleic acid was separated from phospholipids by thin layer chromatography using gel-impregnated glass fiber sheets (ITLC type SG sheets). The sheets were preactivated by heating at 110° C. for 30 min. The lipid extract was applied to the sheets and chromatographed for 6 minutes, using hexane/acetic acid (100:1, v/v). The positions on the sheet containing oleic acid and phospholipids were visualized by exposure to iodine vapor and located by comparison to standards. The oleic acid and phospholipid zones were cut from the sheets, shaken individually with 2 ml of ethanol/water (80:20, v/v) and 15 ml of Aquasol, then counted for [^14 C] radioactivity (dpm). PLA2 activity, expressed as percent hydrolysis, was calculated from the formula: [formula] and was corrected for nonenzymatic hydrolysis of the substrate. Percent inhibition due to the presence of drug was calculated from the formula: [formula]
When various concentrations of a Compound of Formula I were tested, the percent inhibition at each concentration was plotted as log concentration (abscissa) versus percent inhibition (ordinate) and the IC50 was determined from this plot.

Another experiment has as its system cellular PLA2. Briefly: Inhibition of Cellular Phospholipase A2 (A23187-stimulated macrophages). The format is cell-based. The following applies: 5 μM; rat peritoneal macrophages, A-23187 stimulated. As for the experimental part: II. Inhibition of Cellular Phospholipase A2. - % Inhibition of Cellular PLA2
Resident macrophages were obtained from rats by peritoneal lavage with phosphate buffered saline minus Ca2^++ and Mg2^++ (PBS). Cells were washed 3 times with PBS and resuspended in Dulbecco's Modified Eagle's Medium (GiBco) containing L-glutamine low D-glucose (1000 mg/L), and sodium pyruvate (110 mg/L), supplemented with 10% fetal calf serum. Cells were counted on a Coulter ZBI cell counter and then resuspended to a concentration of 6×10^6 cells/1.5 ml. The cell suspension (1.5 ml culture dishes (35 mm) and the cells were allowed to adhere to the dishes for 90 minutes at 37° C. Dishes were washed 3 times with PBS to remove non-adherent cells. [^14 C]arachidonic acid ([^14 C]-AA, approximately […], were added to the cells (1 uCi/dish) and allowed to incorporate for 120 minutes. Medium containing unincorporated [^14 C]-AA was removed and the cell layer was again washed 3 times with PBS. Inhibitors were dissolved in dimethylsulfoxide (DMSO) and added directly to the macrophages in Hank's Balanced Salt Solution (GiBco) phosphate-buffered, pH 7.4) to obtain the desired final concentration. Cells were incubated with drug or DMSO for 30 minutes at 37° C. and were then stimulated with calcium-ionophore A-23187 (0.75 uM) for 20 minutes. The extracellular medium was removed and the [^14 C] radioactivity released into this medium from AA metabolism was measured by liquid scintillation spectroscopy. The amounts of LTB4 and PGE2 were measured in the extracellular medium by radio immunoassay with specific antisera. The effects of inhibitor were measured as percent inhibition of A23187- stimulated AA metabolite release (^14 C release, PGE2 and LTB4 production) (control) which were calculated from the formula: [formula] IC50 's were calculated as described in the HSF-PLA2 assay.

Experiment [2] deals with carrageenan-induced paw edema in rats. Briefly: Carrageenan-induced paw edema model of inflammation. As to conditions: 2 hr, rat, read-out: Carrageenan ind. paw edema % Inhib. 2 hr; for inhibition in vivo at 20 mg/kg: 20 mg/Kg ip. The format is in vivo. A general note: In the carrageenan paw model, swelling and tenderness develop within hours.

With `CC(C)CCCC(C)CCn1c2c(c3cc(Oc4ccc(C(=O)O)o4)ccc31)CCCC2` (racemic) [Example 144, rac-5-[[1,2,3,4-tetrahydro-9-(3,7-dimethyloctyl)-9H-dibenzo[b,d]pyrrol-6-yl]oxy]-2-furancarboxylic acid], the inhibition at 5 µM in experiment [1] is 78%. For the same compound, the “% Inhib. of cellular PLA2 at 5 μM” value in the experiment on cellular PLA2 came out at 87%. The inhibition in vivo at 30 mg/kg in experiment [2] (30 mg/Kg ip) turned out to be 80%.
For `CCCCCCCCn1c2c(c3cc(Oc4ccc(C(=O)O)o4)ccc31)CCCC2c1cccc(OC)c1` (racemic) [Example 153, rac-5-[[1,2,3,4-tetrahydro-1-(3-methoxyphenyl)-9-octyl-9H-dibenzo[b,d]pyrrol-6-yl]oxy]-2-furancarboxylic acid], in experiment [1] (human synovial fluid PLA2, 30 min at 37° C., pH 7.3), the pIC50 is 5.62. Further, in experiment [1], the inhibition at 5 µM was found to be 63%. In the experiment with cellular PLA2, the “% Inhib. of cellular PLA2 at 5 μM” value was found to be 74%.
On to `CCCCCCCCn1c2c(c3cc(/C=C/c4ccc(C(=O)O)o4)ccc31)C(C)(C)CC(C)(C)C2` [Example 46, (E)-5-[2-(1,2,3,4-tetrahydro-2,2,4,4-tetramethyl-9-octyl-9H-dibenzo[b,d]pyrrol-6-yl)ethenyl]-2-furancarboxylic acid], for which the inhibition at 5 µM in experiment [1] is 75%. The “% Inhib. of cellular PLA2 at 5 μM” value with cellular PLA2 was 48%.
In the case of `CCCCCCCCn1c2c(c3cc(/C(C)=C/c4ccc(C(=O)O)o4)ccc31)CCCC2` [Example 47, (E)-5-[2-methyl-2-(1,2,3,4-tetrahydro-9-octyl-9H-dibenzo[b,d]pyrrol-6-yl)ethenyl]-2-furancarboxylic acid], the inhibition at 5 µM in experiment [1] turned out to be 59%. Further, the “% Inhib. of cellular PLA2 at 5 μM” value in the experiment with cellular PLA2 is reported as 77%. The inhibition in vivo at 20 mg/kg in experiment [2] turned out to be 70%. In experiment [2] (100 mg/Kg po), the inhibition in vivo at 100 mg/kg was 49%.
Turning to `CCCCCCCCn1c2c(c3cc(/C(C)=C/c4ccc(C(=O)O)o4)ccc31)CCCC2(C)C` [Example 48, (E)-5-[2-methyl-2-(1,2,3,4-tetrahydro-1,1-dimethyl-9-octyl-9H-dibenzo[b,d]-pyrrol-6yl)ethenyl]-2-furancarboxylic acid], the inhibition at 5 µM in experiment [1] stood at 75%. In addition, the “% Inhib. of cellular PLA2 at 5 μM” value in the experiment on cellular PLA2 stood at 62%. Further, the inhibition in vivo at 10 mg/kg in experiment [2] (10 mg/Kg ip) was found to be 58%.
With `CCCCCCCCn1c2c(c3cc(/C(C)=C/c4ccc(C(=O)O)o4)ccc31)C(C)(C)CC(C)(C)C2` [Example 49, (E)-5-[2-methyl-2-(1,2,3,4-tetrahydro-2,2,4,4-tetramethyl-9-octyl-9H-dibenzo[b,d]pyrrol-6yl)ethenyl]-2-furancarboxylic acid], in experiment [1], the inhibition at 5 µM worked out at 83%. Moreover, the “% Inhib. of cellular PLA2 at 5 μM” value with cellular PLA2 was 15%.
For the compound `CCCCCCCCn1c2c(c3cc(/C=C(\C)c4ccc(C(=O)O)o4)ccc31)CCCC2` [Example 50, (E)-5-[1-methyl-2-(1,2,3,4-tetrahydro-9-octyl-9H-dibenzo[b,d]-pyrrol-6-yl)ethenyl]-2-furancarboxylic acid], the inhibition at 5 µM in experiment [1] turned out to be 47%. The “% Inhib. of cellular PLA2 at 5 μM” value in the experiment with cellular PLA2 was determined as 79%. In experiment [2], the inhibition in vivo at 20 mg/kg worked out at 56%.
For the compound `CCCCCCCCn1c2c(c3cc(Oc4ccc(C(=O)O)o4)ccc31)CC(C)(C)CC2` [Example 135, 5-[(1,2,3,4-tetrahydro-3,3-dimethyl-9-octyl-9H-dibenzo[b,d]pyrrol-6-yl)oxy]-2-furancarboxylic acid], the inhibition at 5 µM in experiment [1] is 66%. Besides, the “% Inhib. of cellular PLA2 at 5 μM” value in the experiment with cellular PLA2 stood at 90%.
On to `CCCCn1c2c(c3cc(Oc4ccc(C(=O)O)o4)ccc31)CCCC2` [Example 136, 5-[(1,2,3,4-tetrahydro-9-butyl-9H-dibenzo[b,d]pyrrol-6-yl)oxy]-2-furancarboxylic acid], for which the inhibition at 5 µM in experiment [1] amounted to 12%. Besides, in the experiment with cellular PLA2, the “% Inhib. of cellular PLA2 at 5 μM” value turned out to be 85%.
On the same counts, the results for `O=C(O)c1ccc(Oc2ccc3c(c2)c2c(n3Cc3ccc(Br)cc3)CCCC2)o1` [Example 137, 5-[[1,2,3,4-tetrahydro-9-(4-bromophenyl)methyl-9H-dibenzo[b,d]pyrrol-6-yl]oxy]-2-furancarboxylic acid] are 36% and 100%.
For the compound `Cn1c2c(c3cc(Oc4ccc(C(=O)O)o4)ccc31)CCCC2` [Example 138, 5-[(1,2,3,4-tetrahydro-9-methyl-9H-dibenzo[b,d]pyrrol-6-yl)oxy]-2-furancarboxylic acid], the inhibition at 5 µM in experiment [1] amounted to 39%. In addition, the “% Inhib. of cellular PLA2 at 5 μM” value in the experiment on cellular PLA2 is recorded as 13%.
For `CCCCCCCn1c2c(c3cc(Oc4ccc(C(=O)O)o4)ccc31)CCCC2` [Example 140, 5-[(1,2,3,4-tetrahydro-9-heptyl-9H-dibenzo[b,d]pyrrol-6-yl)oxy]-2-furancarboxylic acid], in that order: 55% and 97%.
For `CCCCCCCCCCCCn1c2c(c3cc(Oc4ccc(C(=O)O)o4)ccc31)CCCC2` [Example 141, 5-[(1,2,3,4-tetrahydro-9-dodecyl-9H-dibenzo[b,d]pyrrol-6-yl)oxy]-2-furancarboxylic acid], in that order: 66% and 74%.
In the case of `CCCCCCCc1ccc(Cn2c3c(c4cc(Oc5ccc(C(=O)O)o5)ccc42)CCCC3)cc1` [Example 143, 5-[[1,2,3,4-tetrahydro-9-(4-heptylphenyl)methyl-9H-dibenzo[b,d]pyrrol-6-yl]oxy]-2-furancarboxylic acid], the inhibition at 5 µM in experiment [1] came to 76%. Also, the “% Inhib. of cellular PLA2 at 5 μM” value with cellular PLA2 is given as 65%.
For `O=C(O)c1ccc(Oc2ccc3c(c2)c2c(n3Cc3ccccc3F)CCCC2)o1` [Example 148, 5-[[1,2,3,4-tetrahydro-9-[(2-fluorophenyl)methyl]-9H-dibenzo[b,d]pyrrol-6-yl]oxy]-2-furancarboxylic acid], in that order: 65% and 97%.
In the case of `Cc1ccc(Cn2c3c(c4cc(Oc5ccc(C(=O)O)o5)ccc42)CCCC3)cc1` [Example 151, 5-[[1,2,3,4-tetrahydro-9-[(4-methylphenyl)methyl]-9H-dibenzo[b,d]pyrrol-6-yl]oxy]-2-furancarboxylic acid], the inhibition at 5 µM in experiment [1] worked out at 72%. Also, the “% Inhib. of cellular PLA2 at 5 μM” value in the experiment on cellular PLA2 worked out at 93%.
As for `Cc1cc(C)c(Cn2c3c(c4cc(Oc5ccc(C(=O)O)o5)ccc42)CCCC3)c(C)c1` [Example 152, 5-[[1,2,3,4-tetrahydro-9-[(2,4,6-trimethylphenyl)methyl]-9H-dibenzo[b,d]pyrrol-6-yl]oxy]-2-furancarboxylic acid], the inhibition at 10 µM in experiment [1] (10 μM (footnote a), read-out: % Inhib. of HSF-PLA2 (a: % Inhibition at 10 μM)) amounted to 72%. Further, the “% Inhib. of cellular PLA2 at 5 μM” value with cellular PLA2 was determined as 89%.
